Measured values from patent US4324801A, “Phenylguanidine acetylsalicylate compounds, process for production thereof, and pharmaceutical composition thereof” (Banyu Pharmaceutical Co. Ltd., priority 1981, dated 1982).
In brackets after ≈: the same amount, converted by molar mass. Read-outs that look alike come from different tables or passages of the source.

Columns and labels:
guinea pigs = experiment: Anti-inflammatory activity (ultraviolet irradiation on the back of guinea pigs); assay type: in vivo, guinea pig (male)
Description: Male guinea pigs having a body weight of about 350 g were used. The back hair of each guinea pig was removed, and ultraviolet light was irradiated onto the back.

rats = experiment: Antipyretic activity (peptone-induced rise in rectal temperature); assay type: in vivo, rat (male); conditions: against the control, oral, 200 mg/kg, rat; 5% peponte s.c. (0.5 ml/100 g)
Description: Male rats having a body weight of 200 to 250 g were used.
^(*) Inhibiting ratio against the control in oral administration at a

[1] = tested on: platelet aggregation in rabbit's platelet-rich plasma (PRP); experiment: cells; assay type: cell-based; conditions: collagen as aggregation inducer; for IC50: Oryctolagus cuniculus, Platelet, read-out: IC50 (final concentration at 50% inhibition of platelet aggregation)
Procedure: This was measured by the method of Born et al. Specifically, using collagen as an aggregation inducer, each of the compounds shown in Table 1 was tested to measure the inhibition of platelet aggregation in rabbit's platelet-rich plasma (PRP). Aspirin and mefenamic acid were used as controls.
^(*) Final concentration at 50% inhibition of platelet aggregation.

prostaglandin synthesis = experiment: Inhibition of prostaglandin synthesis in washed platelet suspension (malondialdehyde formation after arachidonic acid); assay type: cell-based; conditions: in vitro; for IC50: read-out: IC50 (final concentration at 50% inhibition of malondialdehyde formation)
Procedure: Each of the compounds shown in Table 1 was tested to measure the inhibition of prostaglandin synthesis in a washed platelet suspension by measuring the malondialdehyde formation following the addition of arachidonic acid in vitro.

mice [2] = conditions: oral
in vivo = conditions: mouse, po
mice [3] = experiment: Analgesic activity (acetic acid writhing method); assay type: in vivo, mouse (male); conditions: oral, intravenous, intraperitoneal, compared against aspirin and mefenamic acid, writhings counted 5 to 25 minutes after acetic acid
Procedure: The analgesic activity was tested by the acetic acid writhing method. Male mice having a body weight of 18 to 20 g were used. Each of the compounds shown in Table 1 was administered orally, intravenously and intraperitoneally, and then 0.2 ml of a 0.7% aqueous solution of acetic acid was administered intraperitoneally 60 minutes (in oral administration), 10 minutes (in intravenous administration), and 15 minutes (in intraperitoneal administration) after the administration of the test compounds.

[4] = oral, one hour before UV irradiation, guinea pigs

Molecule	ED50 (guinea pigs; [4]) [mg/kg]	Inhibiting ratio (rats) [%]	IC50 (final concentration at 50% inhibition of platelet aggregation) [1] [µg/mL]	IC50 (final concentration at 50% inhibition of malondialdehyde formation) (prostaglandin synthesis) [µg/mL]	LD50 (mice [2]) [mg/kg]	ED50 (guinea pigs; Cavia porcellus, light or radiation study, 1 h, oral, one hour before UV irradiation, guinea pigs, read-out: ED50) [mg/kg]	IC50 [1] [µg/mL]	IC50 (prostaglandin synthesis) [µg/mL]	ED50 (guinea pigs; Cavia porcellus, light or radiation study, po, 1 h) [mg/kg]	LD50 (in vivo) [mg/kg]	analgesic activity (mice [3])
4-ethoxyphenylguanidine acetylsalicylate [Compound 13]	85	62.9	12.2	4.0	600	–	–	–	–	–	–
3-Hydroxy-4-carboethoxyphenylguanidine acetylsalicylate [Compound 17]	–	–	–	–	1100	–	–	–	–	–	–
2-methylphenylguanidine acetylsalicylate [Compound 2]	65	88.1	10.5	3.4	400	–	–	–	–	–	–
Cc1cccc(Nc2ccccc2C(=O)O)c1C [Mefenamic acid, reference compound]	–	–	–	–	–	30	> 20	1.4 (≈ 5.8 µM)	–	–	–
4-methylphenylguanidine acetylsalicylate [Compound 4]	90	83.9	4.5	2.4	600	–	–	–	–	–	–
CC(=O)Oc1ccccc1C(=O)O.N=C(N)Nc1ccccc1 [Compound 1]	140	74.1	6.0	4.3	400	–	–	–	–	–	–
3-methylphenylguanidine acetylsalicylate [Compound 3]	110	28.0	7.0	3.7	400	–	–	–	–	–	–
4-Methoxyphenylguanidine acetylsalicylate [Compound 11]	95	25.2	9.6	3.3	300	–	–	–	–	–	–
CC(=O)Oc1ccccc1C(=O)O [Aspirin, acetylsalicylic acid, reference compound]	–	81.0	–	–	–	–	12.6 (≈ 69.9 µM)	2.4 (≈ 13.3 µM)	90	950	–
3,4-dimethylphenylguanidine acetylsalicylate [Compound 5]	85	–	2.0	4.8	–	–	–	–	–	–	a marked analgesic activity
4-Carbamoylphenylguanidine acetylsalicylate [Compound 16]	200	72.0	12.5	4.5	1600	–	–	–	–	–	–
